Assay results taken from ChEMBL document CHEMBL5442219.

Columns and labels:
Settings in all cases: Compound concentration 10 µM
[1] = molecular target: Kappa-type opioid receptor (Homo sapiens) (UniProt P41145)
Description: PDSP Primary Binding target: OPRK1 - Compounds are tested at 10 uM concentration, plate are incubated at room temperature in the dark for 90 minutes. Reaction are stopped by vacuum filtration onto 0.3% polyethyleneimine soaked filter mats using Filtermate harvester. Scintilation cocktail is then melted onto microwave-dried filters on a hot plate and the radio activity is counted in Microbia counter.

[2] = molecular target: T1, D(4) dopamine receptor (Homo sapiens) (UniProt P21917)
T1 sequence (whole entry): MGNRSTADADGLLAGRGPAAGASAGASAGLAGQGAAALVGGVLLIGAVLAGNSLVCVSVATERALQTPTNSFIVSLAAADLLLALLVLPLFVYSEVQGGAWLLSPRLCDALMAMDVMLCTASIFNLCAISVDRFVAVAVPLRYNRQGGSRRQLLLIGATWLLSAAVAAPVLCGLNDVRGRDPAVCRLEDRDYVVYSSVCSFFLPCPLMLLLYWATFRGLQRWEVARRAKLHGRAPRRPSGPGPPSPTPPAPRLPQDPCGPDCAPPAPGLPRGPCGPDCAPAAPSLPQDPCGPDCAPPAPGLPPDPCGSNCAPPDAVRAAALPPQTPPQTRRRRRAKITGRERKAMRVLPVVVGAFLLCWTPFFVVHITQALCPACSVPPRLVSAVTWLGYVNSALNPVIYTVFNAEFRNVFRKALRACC
Description: PDSP Primary Binding target: DRD4 - Compounds are tested at 10 uM concentration, plate are incubated at room temperature in the dark for 90 minutes. Reaction are stopped by vacuum filtration onto 0.3% polyethyleneimine soaked filter mats using Filtermate harvester. Scintilation cocktail is then melted onto microwave-dried filters on a hot plate and the radio activity is counted in Microbia counter.

[3] = molecular target: Histamine H1 receptor (Homo sapiens) (UniProt P35367)
Description: PDSP Primary Binding target: HRH1 - Compounds are tested at 10 uM concentration, plate are incubated at room temperature in the dark for 90 minutes. Reaction are stopped by vacuum filtration onto 0.3% polyethyleneimine soaked filter mats using Filtermate harvester. Scintilation cocktail is then melted onto microwave-dried filters on a hot plate and the radio activity is counted in Microbia counter.

[4] = molecular target: T2, Alpha-2B adrenergic receptor (Homo sapiens) (UniProt P18089)
T2 sequence (whole entry): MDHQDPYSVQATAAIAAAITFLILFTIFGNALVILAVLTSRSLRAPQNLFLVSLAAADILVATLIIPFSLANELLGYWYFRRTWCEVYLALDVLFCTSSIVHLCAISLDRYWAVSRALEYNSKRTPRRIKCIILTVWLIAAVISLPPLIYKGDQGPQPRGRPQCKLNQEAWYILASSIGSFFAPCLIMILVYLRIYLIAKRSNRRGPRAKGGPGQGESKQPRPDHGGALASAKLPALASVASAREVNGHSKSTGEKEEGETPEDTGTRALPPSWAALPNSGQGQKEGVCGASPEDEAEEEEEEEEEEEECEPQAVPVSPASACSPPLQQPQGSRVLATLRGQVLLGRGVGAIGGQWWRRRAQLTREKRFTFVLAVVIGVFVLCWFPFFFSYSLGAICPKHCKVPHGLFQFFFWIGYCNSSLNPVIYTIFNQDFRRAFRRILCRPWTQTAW
Description: PDSP Primary Binding target: ADRA2B - Compounds are tested at 10 uM concentration, plate are incubated at room temperature in the dark for 90 minutes. Reaction are stopped by vacuum filtration onto 0.3% polyethyleneimine soaked filter mats using Filtermate harvester. Scintilation cocktail is then melted onto microwave-dried filters on a hot plate and the radio activity is counted in Microbia counter.

[5] = molecular target: T3, Alpha-1A adrenergic receptor (Homo sapiens) (UniProt P35348)
T3 sequence (whole entry): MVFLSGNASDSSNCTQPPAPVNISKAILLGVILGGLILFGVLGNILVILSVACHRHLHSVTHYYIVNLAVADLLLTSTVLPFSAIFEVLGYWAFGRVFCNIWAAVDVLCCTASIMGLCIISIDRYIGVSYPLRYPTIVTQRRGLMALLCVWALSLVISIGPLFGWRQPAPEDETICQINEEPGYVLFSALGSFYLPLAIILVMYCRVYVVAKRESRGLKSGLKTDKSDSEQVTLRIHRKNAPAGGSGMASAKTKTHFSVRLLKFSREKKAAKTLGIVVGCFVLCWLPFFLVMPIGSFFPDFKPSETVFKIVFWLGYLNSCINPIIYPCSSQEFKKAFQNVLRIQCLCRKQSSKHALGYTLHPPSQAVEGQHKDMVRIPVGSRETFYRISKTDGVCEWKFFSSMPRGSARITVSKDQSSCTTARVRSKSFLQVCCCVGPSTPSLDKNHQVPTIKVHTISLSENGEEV
Description: PDSP Primary Binding target: ADRA1A - Compounds are tested at 10 uM concentration, plate are incubated at room temperature in the dark for 90 minutes. Reaction are stopped by vacuum filtration onto 0.3% polyethyleneimine soaked filter mats using Filtermate harvester. Scintilation cocktail is then melted onto microwave-dried filters on a hot plate and the radio activity is counted in Microbia counter.

[6] = molecular target: T4, Muscarinic acetylcholine receptor M4 (Homo sapiens) (UniProt P08173)
T4 sequence (whole entry): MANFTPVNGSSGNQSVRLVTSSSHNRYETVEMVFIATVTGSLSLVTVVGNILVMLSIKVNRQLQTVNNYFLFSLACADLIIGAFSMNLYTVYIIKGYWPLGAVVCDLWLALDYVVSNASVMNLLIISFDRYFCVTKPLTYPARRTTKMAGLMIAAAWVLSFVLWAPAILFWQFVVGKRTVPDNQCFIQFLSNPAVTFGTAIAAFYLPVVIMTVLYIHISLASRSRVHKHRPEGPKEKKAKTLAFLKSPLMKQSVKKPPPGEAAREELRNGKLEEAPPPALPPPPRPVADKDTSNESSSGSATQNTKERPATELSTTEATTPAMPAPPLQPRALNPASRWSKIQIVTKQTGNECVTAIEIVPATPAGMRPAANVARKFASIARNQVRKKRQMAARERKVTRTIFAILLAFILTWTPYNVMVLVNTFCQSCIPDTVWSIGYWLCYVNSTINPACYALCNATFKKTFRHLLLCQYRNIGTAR
Description: PDSP Primary Binding target: CHRM4 - Compounds are tested at 10 uM concentration, plate are incubated at room temperature in the dark for 90 minutes. Reaction are stopped by vacuum filtration onto 0.3% polyethyleneimine soaked filter mats using Filtermate harvester. Scintilation cocktail is then melted onto microwave-dried filters on a hot plate and the radio activity is counted in Microbia counter.

[7] = molecular target: T5, Muscarinic acetylcholine receptor M1 (Homo sapiens) (UniProt P11229)
T5 sequence (whole entry): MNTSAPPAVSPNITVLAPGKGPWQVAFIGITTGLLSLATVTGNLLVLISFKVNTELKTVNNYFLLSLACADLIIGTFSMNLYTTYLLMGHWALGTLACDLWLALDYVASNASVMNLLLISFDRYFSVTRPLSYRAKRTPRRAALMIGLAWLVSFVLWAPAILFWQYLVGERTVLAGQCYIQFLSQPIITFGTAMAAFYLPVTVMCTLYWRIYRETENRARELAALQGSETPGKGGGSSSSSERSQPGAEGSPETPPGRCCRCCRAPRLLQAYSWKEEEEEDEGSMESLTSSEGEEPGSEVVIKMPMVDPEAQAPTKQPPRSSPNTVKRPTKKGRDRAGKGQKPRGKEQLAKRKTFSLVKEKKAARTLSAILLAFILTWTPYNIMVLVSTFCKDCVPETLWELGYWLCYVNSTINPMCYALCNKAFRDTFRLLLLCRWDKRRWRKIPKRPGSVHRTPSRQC
Description: PDSP Primary Binding target: CHRM1 - Compounds are tested at 10 uM concentration, plate are incubated at room temperature in the dark for 90 minutes. Reaction are stopped by vacuum filtration onto 0.3% polyethyleneimine soaked filter mats using Filtermate harvester. Scintilation cocktail is then melted onto microwave-dried filters on a hot plate and the radio activity is counted in Microbia counter.

[8] = molecular target: T6, 5-hydroxytryptamine receptor 2C (Homo sapiens) (UniProt P28335)
T6 sequence (whole entry): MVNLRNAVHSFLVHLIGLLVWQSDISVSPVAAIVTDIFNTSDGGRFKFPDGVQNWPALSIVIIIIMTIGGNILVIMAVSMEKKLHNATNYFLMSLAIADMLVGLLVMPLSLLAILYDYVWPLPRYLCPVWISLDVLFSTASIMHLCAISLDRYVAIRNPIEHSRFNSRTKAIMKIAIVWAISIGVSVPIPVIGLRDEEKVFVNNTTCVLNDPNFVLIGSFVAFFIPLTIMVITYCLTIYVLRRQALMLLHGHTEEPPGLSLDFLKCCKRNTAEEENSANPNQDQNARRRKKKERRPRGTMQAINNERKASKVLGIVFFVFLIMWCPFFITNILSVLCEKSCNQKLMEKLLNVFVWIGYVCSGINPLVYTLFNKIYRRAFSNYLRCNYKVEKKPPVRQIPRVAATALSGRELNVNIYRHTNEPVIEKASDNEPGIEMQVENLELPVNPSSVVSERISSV
Description: PDSP Primary Binding target: HTR2C - Compounds are tested at 10 uM concentration, plate are incubated at room temperature in the dark for 90 minutes. Reaction are stopped by vacuum filtration onto 0.3% polyethyleneimine soaked filter mats using Filtermate harvester. Scintilation cocktail is then melted onto microwave-dried filters on a hot plate and the radio activity is counted in Microbia counter.

[9] = molecular target: Mu-type opioid receptor (Homo sapiens) (UniProt P35372)
Chain of Mu-type opioid receptor (Homo sapiens) (P35372 whole entry): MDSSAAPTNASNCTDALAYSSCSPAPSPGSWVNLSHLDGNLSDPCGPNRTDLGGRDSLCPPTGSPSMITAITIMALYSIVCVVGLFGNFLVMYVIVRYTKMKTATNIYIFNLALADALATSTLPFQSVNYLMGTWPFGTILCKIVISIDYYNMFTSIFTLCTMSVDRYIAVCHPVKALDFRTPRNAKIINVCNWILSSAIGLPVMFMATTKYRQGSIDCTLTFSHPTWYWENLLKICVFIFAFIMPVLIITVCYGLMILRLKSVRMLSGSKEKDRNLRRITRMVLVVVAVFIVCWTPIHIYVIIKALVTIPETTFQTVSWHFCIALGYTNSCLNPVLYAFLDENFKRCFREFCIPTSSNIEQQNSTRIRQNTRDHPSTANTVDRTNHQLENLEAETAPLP
Description: PDSP Primary Binding target: OPRM1 - Compounds are tested at 10 uM concentration, plate are incubated at room temperature in the dark for 90 minutes. Reaction are stopped by vacuum filtration onto 0.3% polyethyleneimine soaked filter mats using Filtermate harvester. Scintilation cocktail is then melted onto microwave-dried filters on a hot plate and the radio activity is counted in Microbia counter.

Chain of Kappa-type opioid receptor (Homo sapiens) (P41145 whole entry): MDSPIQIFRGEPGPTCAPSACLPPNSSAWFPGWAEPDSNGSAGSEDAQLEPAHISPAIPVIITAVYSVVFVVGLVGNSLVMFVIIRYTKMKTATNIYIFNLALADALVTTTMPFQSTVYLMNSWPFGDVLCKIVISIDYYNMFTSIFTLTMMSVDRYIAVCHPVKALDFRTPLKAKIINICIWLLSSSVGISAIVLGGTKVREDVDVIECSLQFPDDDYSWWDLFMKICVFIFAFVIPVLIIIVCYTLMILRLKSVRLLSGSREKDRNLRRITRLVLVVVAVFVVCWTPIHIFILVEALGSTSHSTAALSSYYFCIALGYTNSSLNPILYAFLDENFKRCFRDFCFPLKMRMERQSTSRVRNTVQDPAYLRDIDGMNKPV
Chain of Histamine H1 receptor (Homo sapiens) (P35367 whole entry): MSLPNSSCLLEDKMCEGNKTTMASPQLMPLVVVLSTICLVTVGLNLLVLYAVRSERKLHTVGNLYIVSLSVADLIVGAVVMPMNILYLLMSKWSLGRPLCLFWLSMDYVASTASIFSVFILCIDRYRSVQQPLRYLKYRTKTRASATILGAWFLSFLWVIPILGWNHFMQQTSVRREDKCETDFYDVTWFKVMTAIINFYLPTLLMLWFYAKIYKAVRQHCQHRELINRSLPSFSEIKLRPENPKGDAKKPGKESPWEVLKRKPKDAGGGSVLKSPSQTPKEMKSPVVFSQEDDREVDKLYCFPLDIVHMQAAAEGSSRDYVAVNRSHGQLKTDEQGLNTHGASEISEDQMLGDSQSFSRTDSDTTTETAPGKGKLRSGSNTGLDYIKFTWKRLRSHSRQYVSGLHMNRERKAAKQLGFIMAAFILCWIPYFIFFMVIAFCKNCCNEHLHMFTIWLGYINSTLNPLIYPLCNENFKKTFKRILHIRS

| Structure (SMILES) | inhibition [1] | inhibition [2] | inhibition [3] | inhibition [4] | inhibition [5] | inhibition [6] | inhibition [7] | inhibition [8] | inhibition [9] |
| --- | --- | --- | --- | --- | --- | --- | --- | --- | --- |
| OC[C@H]1O[C@@H](n2cnc3c(NC4CCCC4)ncnc32)[C@H](O)[C@@H]1O | -5.12% | 34% | 2.72% | 11% | -0.37% | 3.39% | 15.4% | -3.43% |  |
| Cc1nn(C)c(C)c1-c1cccc2c1CC[C@H](N(C)C)C2 | 23.1% | 24.5% | 9.36% | 92.2% | 15.3% | 5.06% | 29.3% | 13.1% | 14.6% |
| CN(C)S(=O)(=O)c1ccc(NC(=S)N2CCC(C(O)(c3ccccc3)c3ccccc3)CC2)cc1 | 12.3% | 8.69% | 6.41% | 14.4% | -0.67% | -6.86% | 8.52% | 3.54% | 2.22% |
| Clc1ccc(CCCOCCCN2CCCCC2)cc1 | 40.4% | 21.5% | 68.7% | 1.88% | -2.04% | 76.8% | 24.5% | 57% | 3.99% |
| O=C(O)c1cc(-c2ccc(C3CCNCC3)cc2)c2ccc(-c3ccc(C(F)(F)F)cc3)cc2c1 | 19.2% |  | 42.8% | 40.4% |  | -1.1% | 23.8% | -3.35% | 26.5% |
| FC(F)(F)c1cccc(-c2noc(-c3cc(-c4ccccc4)c(C(F)(F)F)s3)n2)c1 | 46.5% | -0.65% | 17% |  |  | -0.35% | 21.5% | 1.03% | -7.64% |
| O=C(O)C1CN(Cc2ccc(OCc3ccc(Cl)c(Cl)c3)cc2)C1 | -7.92% | -0.79% | 86% | 35.4% | -0.54% | 29.6% | 2.35% |  | 1.29% |
| CN1CCCC(n2nc(Cc3ccc(Cl)cc3)c3ccccc3c2=O)CC1 (stereo not given) |  | 85.5% |  | 79.1% | 87.7% | 83.7% | 82.9% | 93.7% | 29.4% |
| NCCc1cn(S(=O)(=O)c2c(Cl)nc3sccn23)c2ccccc12 | 32.8% | 38.7% | 52.1% | 47.2% | 57.5% | 16.1% | 38.9% |  | 16.8% |
| CCc1cc2c(cc1CC)CC(NC[C@H](O)c1ccc(O)c3[nH]c(=O)ccc13)C2 |  | 24.2% | 34.9% | 38.5% | 84.1% | 17.9% | -6.02% | 66.8% | 21% |
| Cc1ccc(O)c([C@H](CCN(C(C)C)C(C)C)c2ccccc2)c1 | 31% | 35.3% | 83.1% | 36.7% | 0.77% | 0.61% | 99.2% |  | -3.49% |
| CC(C)Oc1ccccc1C(=O)Nc1ccccc1C(=O)Nc1cccc(S(=O)(=O)C(F)(F)F)c1 |  | 43% | 2.1% |  | -8.65% | -2.68% | -6.91% | 11.3% | -7.51% |
| N#Cc1c(N)nc(SCc2csc(-c3ccc(Cl)cc3)n2)c(C#N)c1-c1ccc(OCCO)cc1 | -8.5% | 38.4% | 14.2% | 2.13% | 6.84% | -8.79% | -3.33% | 39.9% |  |
| O=C(O)CC1CCC2(CC1)CCN(c1cc(OC(F)(F)F)ccc1Cl)CC2 | 10.9% |  | 31.1% |  | -7.1% | 7.8% | -1.08% | 13.1% | 34.3% |
